The record followed here is patent publication US12622892B2, “Methods for treating endometriosis” (THE TEXAS A&M UNIVERSITY SYSTEM, priority 2020, dated 2026).

For one assay, the system named is IHEECs. Nature of the assay: Expression of fibrosis markers in IHEECs. The class given is cell-based, human. As to conditions: 24 hours, vs control, FIG. 6B.
Assay [1] deals with ESECT-7 cells. Nature of the assay: Western blotting of growth promoting and proapoptotic gene products, ESECT-7. The class given is cell-based, human. The source says:
(§1) Reagents and Antibodies: Annexin V Dead Cell Apoptosis Kit (V13241) was purchased from Invitrogen. The primary antibodies used were EGFR (4267, 1:1000), Survivin (2808, 1:1000), c-Caspase-3 (9661, 1; 1000), c-PARP (9541, 1:1000) from Cell Signaling Technology (Danvers, MA) and c-Myc (sc-40, 1:500), Bcl-2 (sc-509, 1:500) and Bax (sc-20067, 1:500) from Santacruz Biotechnology (Santacruz, CA), NR4A1 (ab109180, 1:3000) and α-SMA (ab32575, 1:3000) from Abcam (Cambridge, MA), β-Actin (A1978, 1:10000) from Sigma Aldrich Corporation (Milwaukee, WI). COL1A1 (GTX112731, 1:2000), CTGF (GTX124232, 1:2000) and FN (GTX112794, 1:2000) from GeneTex, Inc. (Irvine, CA). Secondary antibodies for rabbit (7074), mouse (7076) and Anti-rabbit Alexa Fluor (4412) purchased from Cell Signaling Technology (Danvers, MA). […]
(§2) Western Blotting: ESECT-7 and ESECT-40 cells (2×105) were seeded and allowed to attach for 24 hr, and cells were then treated for 24 hr with either DMSO or different concentrations of DIM-C-pPhOH and DIM-C-pPhOH-3-Cl-5-OCH3. Cells were then lysed and whole-cell lysates were resolved in 10% SDS-PAGE gels and proteins were transferred using PVDF membrane by wet blotting followed by primary and secondary antibody incubation and detected using ECL reagent as described.
For orientation: In western blotting, separated proteins are transferred to a membrane and probed.

Assay [2] concerns ESECT-40 cells. Nature of the assay: Annexin V staining, ESECT-40. The class given is cell-based, human. The note with it: 10 μM DIM-C-pPhOH-3-Cl-5-OCH3, 25 μM DIM-C-pPhOH, FIG. 3B. Here is the method: Annexin V staining: ESECT-7 and ESECT-40 cells were seeded in Nunc chambered cover glass followed by various drug treatments. The cells were then washed with ice-cold PBS, and 5 μL Alexa Fluor® 488 Annexin V with 100 μg/mL PI (as per the manufacturer's instructions) were added to the cells and incubated for 15 min, and the cells were observed using a Zeiss confocal fluorescence microscope.

The target of the next assay is T1, NR4A1 (Homo sapiens, UniProt P22736).
T1 construct: expressed in transfected cells; host or cells: ESECT-7 patient-derived endometriotic cells
T1 sequence (P22736 whole entry, species assumed): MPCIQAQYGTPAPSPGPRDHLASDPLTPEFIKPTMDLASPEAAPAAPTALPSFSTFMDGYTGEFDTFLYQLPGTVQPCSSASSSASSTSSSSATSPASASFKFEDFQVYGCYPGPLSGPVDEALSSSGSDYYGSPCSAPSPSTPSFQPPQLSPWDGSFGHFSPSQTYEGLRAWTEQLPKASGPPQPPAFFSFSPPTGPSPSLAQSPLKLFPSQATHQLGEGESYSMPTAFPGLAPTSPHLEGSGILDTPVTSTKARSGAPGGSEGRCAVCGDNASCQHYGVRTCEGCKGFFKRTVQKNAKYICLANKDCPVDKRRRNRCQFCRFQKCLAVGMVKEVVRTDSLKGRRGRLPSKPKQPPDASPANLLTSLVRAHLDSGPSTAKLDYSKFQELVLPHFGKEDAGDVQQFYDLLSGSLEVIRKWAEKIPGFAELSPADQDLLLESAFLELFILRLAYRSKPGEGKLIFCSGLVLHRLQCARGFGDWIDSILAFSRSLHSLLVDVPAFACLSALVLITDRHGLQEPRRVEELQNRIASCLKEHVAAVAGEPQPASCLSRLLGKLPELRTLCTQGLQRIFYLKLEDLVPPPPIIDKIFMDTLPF
Kind of assay: Luciferase assay, NR4A1/NBRE-luc in ESECT-7 cells. The class given is cell-based. As to conditions: ESECT-7 cells transfected with NR4A1/NBRE-luc; 18 hr treatment; FIG. 2A. Here is the method:
Luciferase assay: ESECT-7 and ESECT-40 cells were plated on 12-well plates in DMEM/F12 supplemented with 2.5% charcoal-stripped FBS. After overnight attachment and growth, various amounts of DNA [i.e., UASx5-Luc (500 ng), GAL4-NR4A1 (50 ng), NBREx3-Luc (800 ng), NurREx3-Luc (800 ng) and Flag-NR4A1 (80 ng)] were co-transfected into each well using Lipofectamine 2000 reagent (Invitrogen, Carlsbad, CA) according to the manufacturer's protocol. After 6 hr of transfection, cells were treated with plating medium (as above) containing either solvent (DMSO) or indicated concentrations of the compound for 18 hr. Cells were then lysed and cell extracts were used for chemiluminescence quantification of luciferase activity. Luciferase activity values were normalized against corresponding protein concentration values determined by Bradford assay. Both GAL4- and Flag-NR4A1 constructs contain full-length NR4A1 coding sequence and all the plasmids used in this study were previously described.

The test system of another assay is NEM cells. Nature of the assay: Annexin V staining, NEM cells. As to conditions: 25 μM DIM-C-pPhOH, 10 μM DIM-C-pPhOH-3-Cl-5-OCH3, vs DMSO control, FIG. 4C. The class given is cell-based, human.
Assay [3] deals with ESECT-40 cells. Nature of the assay: Western blotting of growth promoting and proapoptotic gene products, ESECT-40. The class given is cell-based, human.
Description: as §1, §2

The test system of assay [4] is ESECT-7 cells. Nature of the assay: Cell proliferation assay (MTT), ESECT-7. The class given is cell-based, human. The note with it: 24 hr; 5-10 μM DIM-C-pPhOH-3-Cl-5-OCH3, 15-25 μM DIM-C-pPhOH; FIG. 2C. Here is the method: (§3) Primary human endometriotic stromal cells from endometriosis patients: Ovarian endometrioma were isolated from endometriosis patients in the proliferative phase following the IRB-approved protocol. Isolated ectopic lesions were digested with collagenase type 3 (300 μg/ml) and DNaseI (40 μg/ml) for 90 min at 37° C., and then tissues were filtered through 150, 100, and 40 μm sieves to isolate endometrial stromal cells. The collected endometrial stromal cells were cultured in DMEM/F12 with 10% FBS plus 1× antibiotic/antimycotic solution and then validated by flow cytometry with a CD90 antibody (a mesenchymal marker). Henceforth, we refer to the stromal cells as ectopic endometrium isolated ovarian endometrioma (ESECT). As the control, primary normal endometrial stromal cells isolated from the biopsy of the eutopic endometrium of normal women (NEM) in the proliferative phase. All cells were incubated at 37° C. in CO2 incubator in an atmosphere of humidified 5% CO2 and 95% air.
(§4) Cell proliferation assay: Patient-derived endometriotic cells ESECT-7 and ESECT-40 were seeded into a 96-well plate, and the cells were then treated for 24 hr with either DMSO or different concentrations of DIM-C-pPhOH and DIM-C-pPhOH-3-Cl-5-OCH3. […] Dimethyl sulfoxide (DMSO) was added and incubated at […] for 10 min, and absorbance was measured at 570 nm.

In assay [5] the test system is ESECT-40 cells. Kind of assay: Cell proliferation assay (MTT), ESECT-40. The class given is cell-based, human. As to conditions: 24 hr; 5-10 μM DIM-C-pPhOH-3-Cl-5-OCH3, 15-25 μM DIM-C-pPhOH; FIG. 2C. Here is the method: as §3, §4
Another assay relates to Ishikawa cells. Kind of assay: Expression of fibrosis markers in Ishikawa cells. The class given is cell-based. As to conditions: 24 hours, FIG. 6D.

`COc1cc(C(c2c[nH]c3ccccc23)c2c[nH]c3ccccc23)cc(Cl)c1O` [DIM-C-pPhOH-3-Cl-5-OCH3]: the “expression of fibrosis markers (α-SMA, COL1A1, FN, CTGF)” value in the assay on IHEECs and in the assay on Ishikawa cells was “decreased expression of fibrosis markers” in each case. Further, the “expression of EGFR and cMyc” value with ESECT-7 cells [1] (5-10 μM, 24 hr, FIG. 2D) is “downregulated”; in the assay on ESECT-40 cells [3] (5-10 μM, 24 hr, FIG. 2D), “downregulated”. Also, the “markers of apoptosis (downregulation of survivin and Bcl-2, induced Bax, cleaved PARP and caspase-3)” value in the assay on ESECT-7 cells [1] (Five μM, 24 hours, FIG. 3C) is “significantly induced several markers of apoptosis”; in the assay on ESECT-40 cells [3] (Five μM, 24 hours, FIG. 3C), “significantly induced several markers of apoptosis”. In the assay on ESECT-40 cells [2], the “Annexin V staining (apoptosis)” value was “significantly induced”. In addition, the “intrinsic transcriptional activity of NR4A1” value on NR4A1 is “inhibited the intrinsic transcriptional activity”. In the assay with NEM cells, the “Annexin V staining” value is “did not enhance”. Moreover, the “growth of ESECT-7 cells” value in the assay with ESECT-7 cells [4] is “effectively inhibited the growth”. In addition, the “growth of ESECT-40 cells” value in the assay on ESECT-40 cells [5] is “effectively inhibited the growth”.
